# From US20230085307A1, “PYRIDAZINONE COMPOUND AND HERBICIDE” (NISSAN CHEMICAL CORPORATION, priority 2019, published 2023)
# How the values were obtained:
# barnyard grass [1] = experiment: Test Example 3: herbicidal effect by foliage application, Wagner pot (Table 18, symbol H); type: in vivo, barnyard grass (Echinochloa crus-galli)
# How it was run: (§1)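 Plants were sown in alluvial soil held under 0.1–0.5 cm standing water and grown 14 days in a greenhouse at 25–30 °C. An emulsifiable formulation, water-diluted to the set dose, was then sprayed onto the foliage, and effects were scored three weeks later using previously defined criteria.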
# Chinese sprangletop = experiment: Test Example 3: herbicidal effect by foliage application, Wagner pot (Table 18, symbol D); type: in vivo, chinese sprangletop (Leptochloa chinensis)
# How it was run: as §1
# rice flat sedge = experiment: Test Example 3: herbicidal effect by foliage application, Wagner pot (Table 18, symbol E); type: in vivo, rice flat sedge (Cyperus iria)
# How it was run: as §1
# southern crabgrass [2] = experiment: Test Example 4: herbicidal effect by soil treatment (Table 19, symbol F); type: in vivo, southern crabgrass (Digitaria ciliaris)
# How it was run: (§2)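 Pre-emergence style soil spray: seeds under ~1.5 cm sterilized diluvial soil received a uniform coat of emulsion diluted to the predetermined herbicide amount. Greenhouse 25–30° C; readout at week three on previously defined criteria.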
# green foxtail [3] = experiment: Test Example 4: herbicidal effect by soil treatment (Table 19, symbol G); type: in vivo, green foxtail (Setaria viridis)
# How it was run: as §2
# barnyard grass [4] = experiment: Test Example 4: herbicidal effect by soil treatment (Table 19, symbol H); type: in vivo, barnyard grass (Echinochloa crus-galli)
# How it was run: as §2
# wild oat [5] = experiment: Test Example 4: herbicidal effect by soil treatment (Table 19, symbol I); type: in vivo, wild oat (Avena fatua)
# How it was run: as §2
# blackgrass [6] = experiment: Test Example 4: herbicidal effect by soil treatment (Table 19, symbol J); type: in vivo, blackgrass (Alopecurus myosuroides)
# How it was run: as §2
# Italian ryegrass [7] = experiment: Test Example 4: herbicidal effect by soil treatment (Table 19, symbol K); type: in vivo, Italian ryegrass (Lolium multiflorum)
# How it was run: as §2
# windgrass [8] = experiment: Test Example 4: herbicidal effect by soil treatment (Table 19, symbol L); type: in vivo, windgrass (Apera spica-venti)
# How it was run: as §2
# velvetleaf [9] = experiment: Test Example 4: herbicidal effect by soil treatment (Table 19, symbol M); type: in vivo, velvetleaf (Abutilon theophrasti)
# How it was run: as §2
# redroot pigweed [10] = experiment: Test Example 4: herbicidal effect by soil treatment (Table 19, symbol N); type: in vivo, redroot pigweed (Amaranthus retroflexus)
# How it was run: as §2
# lambsquarters [11] = experiment: Test Example 4: herbicidal effect by soil treatment (Table 19, symbol O); type: in vivo, lambsquarters (Chenopodium album)
# How it was run: as §2
# chickweed [12] = experiment: Test Example 4: herbicidal effect by soil treatment (Table 19, symbol P); type: in vivo, common chickweed (Stellaria media)
# How it was run: as §2
# persian speedwell [13] = experiment: Test Example 4: herbicidal effect by soil treatment (Table 19, symbol R); type: in vivo, Persian speedwell (Veronica persica)
# How it was run: as §2
# southern crabgrass [14] = experiment: Test Example 5: herbicidal effect by foliage application, plastic box (Table 20, symbol F); type: in vivo, southern crabgrass (Digitaria ciliaris); details: foliage application, three weeks after application
# How it was run: (§3)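 Plants were sown into sterilized diluvial soil under about 1.5 cm cover and kept in a greenhouse at 25° C. to 30° C. Fourteen days on, foliage received an even spray of the diluted emulsion. Herbicidal or crop effect was judged three weeks afterwards.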
# green foxtail [15] = experiment: Test Example 5: herbicidal effect by foliage application, plastic box (Table 20, symbol G); type: in vivo, green foxtail (Setaria viridis); details: foliage application, three weeks after application
# How it was run: as §3
# barnyard grass [16] = experiment: Test Example 5: herbicidal effect by foliage application, plastic box (Table 20, symbol H); type: in vivo, barnyard grass (Echinochloa crus-galli); details: foliage application, three weeks after application
# How it was run: as §3
# wild oat [17] = experiment: Test Example 5: herbicidal effect by foliage application, plastic box (Table 20, symbol I); type: in vivo, wild oat (Avena fatua); details: foliage application, three weeks after application
# How it was run: as §3
# blackgrass [18] = experiment: Test Example 5: herbicidal effect by foliage application, plastic box (Table 20, symbol J); type: in vivo, blackgrass (Alopecurus myosuroides); details: foliage application, three weeks after application
# How it was run: as §3
# Italian ryegrass [19] = experiment: Test Example 5: herbicidal effect by foliage application, plastic box (Table 20, symbol K); type: in vivo, Italian ryegrass (Lolium multiflorum); details: foliage application, three weeks after application
# How it was run: as §3
# windgrass [20] = experiment: Test Example 5: herbicidal effect by foliage application, plastic box (Table 20, symbol L); type: in vivo, windgrass (Apera spica-venti); details: foliage application, three weeks after application
# How it was run: as §3
# velvetleaf [21] = experiment: Test Example 5: herbicidal effect by foliage application, plastic box (Table 20, symbol M); type: in vivo, velvetleaf (Abutilon theophrasti); details: foliage application, three weeks after application
# How it was run: as §3
# redroot pigweed [22] = experiment: Test Example 5: herbicidal effect by foliage application, plastic box (Table 20, symbol N); type: in vivo, redroot pigweed (Amaranthus retroflexus); details: foliage application, three weeks after application
# How it was run: as §3
# lambsquarters [23] = experiment: Test Example 5: herbicidal effect by foliage application, plastic box (Table 20, symbol O); type: in vivo, lambsquarters (Chenopodium album); details: foliage application, three weeks after application
# How it was run: as §3
# chickweed [24] = experiment: Test Example 5: herbicidal effect by foliage application, plastic box (Table 20, symbol P); type: in vivo, common chickweed (Stellaria media); details: foliage application, three weeks after application
# How it was run: as §3
# persian speedwell [25] = experiment: Test Example 5: herbicidal effect by foliage application, plastic box (Table 20, symbol R); type: in vivo, Persian speedwell (Veronica persica); details: foliage application, three weeks after application
# How it was run: as §3
smiles,measurement,setting,value
COc1nn(C)c(=O)c(-c2c(-c3ccc(-c4ccccc4)cc3)sc3ccccc23)c1O [1-166],"herbicidal effect on H (barnyard grass), rating 0-5",barnyard grass [1]; 80 g/ha,4 (Herbicidal rate of 70% or more and less than 90%)
same,"herbicidal effect on D (Chinese sprangletop), rating 0-5",Chinese sprangletop; 80 g/ha,4 (Herbicidal rate of 70% or more and less than 90%)
same,"herbicidal effect on E (rice flat sedge), rating 0-5",rice flat sedge; 80 g/ha,5 (Herbicidal rate of 90% or more (almost completely withered))
same,"F: southern crabgrass, herbicidal effect rating",southern crabgrass [2]; AAH 80 g/ha,0 (Herbicidal rate of 5% or less (almost no effect))
same,"G: green foxtail, herbicidal effect rating",green foxtail [3]; AAH 80 g/ha,0 (Herbicidal rate of 5% or less (almost no effect))
same,"H: barnyard grass, herbicidal effect rating",barnyard grass [4]; AAH 80 g/ha,0 (Herbicidal rate of 5% or less (almost no effect))
same,"I: wild oat, herbicidal effect rating",wild oat [5]; AAH 80 g/ha,0 (Herbicidal rate of 5% or less (almost no effect))
same,"J: blackgrass, herbicidal effect rating",blackgrass [6]; AAH 80 g/ha,0 (Herbicidal rate of 5% or less (almost no effect))
same,"K: Italian ryegrass, herbicidal effect rating",Italian ryegrass [7]; AAH 80 g/ha,0 (Herbicidal rate of 5% or less (almost no effect))
same,"L: windgrass, herbicidal effect rating",windgrass [8]; AAH 80 g/ha,0 (Herbicidal rate of 5% or less (almost no effect))
same,"M: velvetleaf, herbicidal effect rating",velvetleaf [9]; AAH 80 g/ha,0 (Herbicidal rate of 5% or less (almost no effect))
same,"N: redroot pigweed, herbicidal effect rating",redroot pigweed [10]; AAH 80 g/ha,0 (Herbicidal rate of 5% or less (almost no effect))
same,"O: lambsquarters, herbicidal effect rating",lambsquarters [11]; AAH 80 g/ha,0 (Herbicidal rate of 5% or less (almost no effect))
same,"P: chickweed, herbicidal effect rating",chickweed [12]; AAH 80 g/ha,4 (Herbicidal rate of 70% or more and less than 90%)
same,"R: persian speedwell, herbicidal effect rating",persian speedwell [13]; AAH 80 g/ha,1 (Herbicidal rate of 5% or more and less than 20%)
same,"F: southern crabgrass, herbicidal effect",southern crabgrass [14]; AAH 80 g/ha,0 (Herbicidal rate of 5% or less (almost no effect))
same,"G: green foxtail, herbicidal effect",green foxtail [15]; AAH 80 g/ha,0 (Herbicidal rate of 5% or less (almost no effect))
same,"H: barnyard grass, herbicidal effect",barnyard grass [16]; AAH 80 g/ha,0 (Herbicidal rate of 5% or less (almost no effect))
same,"I: wild oat, herbicidal effect",wild oat [17]; AAH 80 g/ha,0 (Herbicidal rate of 5% or less (almost no effect))
same,"J: blackgrass, herbicidal effect",blackgrass [18]; AAH 80 g/ha,0 (Herbicidal rate of 5% or less (almost no effect))
same,"K: Italian ryegrass, herbicidal effect",Italian ryegrass [19]; AAH 80 g/ha,0 (Herbicidal rate of 5% or less (almost no effect))
same,"L: windgrass, herbicidal effect",windgrass [20]; AAH 80 g/ha,0 (Herbicidal rate of 5% or less (almost no effect))
same,"M: velvetleaf, herbicidal effect",velvetleaf [21]; AAH 80 g/ha,0 (Herbicidal rate of 5% or less (almost no effect))
same,"N: redroot pigweed, herbicidal effect",redroot pigweed [22]; AAH 80 g/ha,3 (Herbicidal rate of 40% or more and less than 70%)
same,"O: lambsquarters, herbicidal effect",lambsquarters [23]; AAH 80 g/ha,2 (Herbicidal rate of 20% or more and less than 40%)
same,"P: chickweed, herbicidal effect",chickweed [24]; AAH 80 g/ha,3 (Herbicidal rate of 40% or more and less than 70%)
same,"R: persian speedwell, herbicidal effect",persian speedwell [25]; AAH 80 g/ha,5 (Herbicidal rate of 90% or more (almost completely withered))
CCCC(=O)Oc1c(OC)nn(C)c(=O)c1-c1c(-c2cc(Cl)ccc2OC)sc2ccccc12 [1-179],"herbicidal effect on H (barnyard grass), rating 0-5",barnyard grass [1]; 320 g/ha,4 (Herbicidal rate of 70% or more and less than 90%)
same,"herbicidal effect on D (Chinese sprangletop), rating 0-5",Chinese sprangletop; 320 g/ha,0 (Herbicidal rate of 5% or less (almost no effect))
same,"herbicidal effect on E (rice flat sedge), rating 0-5",rice flat sedge; 320 g/ha,3 (Herbicidal rate of 40% or more and less than 70%)
same,"F: southern crabgrass, herbicidal effect rating",southern crabgrass [2]; AAH 320 g/ha,0 (Herbicidal rate of 5% or less (almost no effect))
same,"G: green foxtail, herbicidal effect rating",green foxtail [3]; AAH 320 g/ha,0 (Herbicidal rate of 5% or less (almost no effect))
same,"H: barnyard grass, herbicidal effect rating",barnyard grass [4]; AAH 320 g/ha,0 (Herbicidal rate of 5% or less (almost no effect))
same,"I: wild oat, herbicidal effect rating",wild oat [5]; AAH 320 g/ha,0 (Herbicidal rate of 5% or less (almost no effect))
same,"J: blackgrass, herbicidal effect rating",blackgrass [6]; AAH 320 g/ha,0 (Herbicidal rate of 5% or less (almost no effect))
same,"K: Italian ryegrass, herbicidal effect rating",Italian ryegrass [7]; AAH 320 g/ha,0 (Herbicidal rate of 5% or less (almost no effect))
same,"L: windgrass, herbicidal effect rating",windgrass [8]; AAH 320 g/ha,0 (Herbicidal rate of 5% or less (almost no effect))
same,"M: velvetleaf, herbicidal effect rating",velvetleaf [9]; AAH 320 g/ha,0 (Herbicidal rate of 5% or less (almost no effect))
same,"N: redroot pigweed, herbicidal effect rating",redroot pigweed [10]; AAH 320 g/ha,3 (Herbicidal rate of 40% or more and less than 70%)
same,"O: lambsquarters, herbicidal effect rating",lambsquarters [11]; AAH 320 g/ha,0 (Herbicidal rate of 5% or less (almost no effect))
same,"P: chickweed, herbicidal effect rating",chickweed [12]; AAH 320 g/ha,4 (Herbicidal rate of 70% or more and less than 90%)
same,"R: persian speedwell, herbicidal effect rating",persian speedwell [13]; AAH 320 g/ha,4 (Herbicidal rate of 70% or more and less than 90%)
same,"F: southern crabgrass, herbicidal effect",southern crabgrass [14]; AAH 320 g/ha,3 (Herbicidal rate of 40% or more and less than 70%)
same,"G: green foxtail, herbicidal effect",green foxtail [15]; AAH 320 g/ha,3 (Herbicidal rate of 40% or more and less than 70%)
same,"H: barnyard grass, herbicidal effect",barnyard grass [16]; AAH 320 g/ha,3 (Herbicidal rate of 40% or more and less than 70%)
same,"I: wild oat, herbicidal effect",wild oat [17]; AAH 320 g/ha,3 (Herbicidal rate of 40% or more and less than 70%)
same,"J: blackgrass, herbicidal effect",blackgrass [18]; AAH 320 g/ha,0 (Herbicidal rate of 5% or less (almost no effect))
same,"K: Italian ryegrass, herbicidal effect",Italian ryegrass [19]; AAH 320 g/ha,0 (Herbicidal rate of 5% or less (almost no effect))
same,"L: windgrass, herbicidal effect",windgrass [20]; AAH 320 g/ha,1 (Herbicidal rate of 5% or more and less than 20%)
same,"M: velvetleaf, herbicidal effect",velvetleaf [21]; AAH 320 g/ha,2 (Herbicidal rate of 20% or more and less than 40%)
same,"N: redroot pigweed, herbicidal effect",redroot pigweed [22]; AAH 320 g/ha,4 (Herbicidal rate of 70% or more and less than 90%)
same,"O: lambsquarters, herbicidal effect",lambsquarters [23]; AAH 320 g/ha,3 (Herbicidal rate of 40% or more and less than 70%)
same,"P: chickweed, herbicidal effect",chickweed [24]; AAH 320 g/ha,4 (Herbicidal rate of 70% or more and less than 90%)
same,"R: persian speedwell, herbicidal effect",persian speedwell [25]; AAH 320 g/ha,4 (Herbicidal rate of 70% or more and less than 90%)
